# Patent US20070287752A1, “Ophthalmic Compositions Comprising A Branched, Glycerol Compound” (priority 2006, published 2007)
# Tests used:
# Test in all cases: Preservative/disinfectant system efficacy testing (log reduction)
# Format in all cases: cell-based
# [1] = tested on: Pseudomonas aeruginosa (ATCC 9027)
# Procedure: (§1) The ophthalmic compositions are evaluated in accordance with specific procedures outlined by the US Food & Drug Administration and the International Organization for Standardization for the testing of microbiocidal efficacy.
# [2] = tested on: Fusarium solani (ATCC 36031)
# Procedure: as §1
# [3] = tested on: Candida albicans (ATCC 10231)
# Procedure: as §1
# [4] = tested on: Staphylococcus aureus (ATCC 6538)
# Procedure: as §1
# [5] = 1 hr, Table 5A multi-purpose lens care solution, 10% organic soil, disinfectant concentrations as in label
# [6] = 1 hr, phosphate buffered saline, 10% organic soil, concentrations as in label (Table 4)
# [7] = 4 hr, Table 5A multi-purpose lens care solution, 10% organic soil, disinfectant concentrations as in label
# [8] = 4 hr, phosphate buffered saline, 10% organic soil, concentrations as in label (Table 4)
# [9] = EHOPD 0.0001 wt %, 1 hr, borate buffered saline, 10% organic soil
# [10] = EHOPD 0.0001 wt %, 1 hr, phosphate buffered saline, 10% Organic Soil
# [11] = EHOPD 0.0001 wt %, 4 hr, borate buffered saline, 10% organic soil
# [12] = EHOPD 0.0001 wt %, 4 hr, phosphate buffered saline, 10% Organic Soil
# [13] = EHOPD 0.001 wt %, 1 hr, borate buffered saline, 10% organic soil
# [14] = EHOPD 0.001 wt %, 1 hr, phosphate buffered saline, 10% Organic Soil
# [15] = EHOPD 0.001 wt %, 4 hr, borate buffered saline, 10% organic soil
# [16] = EHOPD 0.001 wt %, 4 hr, phosphate buffered saline, 10% Organic Soil
# [17] = EHOPD 0.01 wt %, 1 hr, Table 3A multi-purpose lens care formulation, 10% organic soil
# [18] = EHOPD 0.01 wt %, 1 hr, borate buffered saline, 10% organic soil
# [19] = EHOPD 0.01 wt %, 1 hr, phosphate buffered saline, 10% Organic Soil
# [20] = EHOPD 0.01 wt %, 4 hr, Table 3A multi-purpose lens care formulation, 10% organic soil
# [21] = EHOPD 0.01 wt %, 4 hr, borate buffered saline, 10% organic soil
# [22] = EHOPD 0.01 wt %, 4 hr, phosphate buffered saline, 10% Organic Soil
# [23] = EHOPD 0.1 wt %, 1 hr, Table 3A multi-purpose lens care formulation, 10% organic soil
# [24] = EHOPD 0.1 wt %, 1 hr, borate buffered saline, 10% organic soil
# [25] = EHOPD 0.1 wt %, 1 hr, phosphate buffered saline, 10% Organic Soil
# [26] = EHOPD 0.1 wt %, 4 hr, Table 3A multi-purpose lens care formulation, 10% organic soil
# [27] = EHOPD 0.1 wt %, 4 hr, borate buffered saline, 10% organic soil
# [28] = EHOPD 0.1 wt %, 4 hr, phosphate buffered saline, 10% Organic Soil
# [29] = EHOPD 0.15 wt %, 1 hr, Table 3A multi-purpose lens care formulation, 10% organic soil
# [30] = EHOPD 0.15 wt %, 4 hr, Table 3A multi-purpose lens care formulation, 10% organic soil
# [31] = EHOPD 0.25 wt %, 1 hr, Table 3A multi-purpose lens care formulation, 10% organic soil
# [32] = EHOPD 0.25 wt %, 4 hr, Table 3A multi-purpose lens care formulation, 10% organic soil
# [33] = EHOPD 0.50 wt %, 1 hr, Table 3A multi-purpose lens care formulation, 10% organic soil
# [34] = EHOPD 0.5 wt %, 1 hr, borate buffered saline, 10% organic soil
# [35] = EHOPD 0.5 wt %, 1 hr, phosphate buffered saline, 10% Organic Soil
# [36] = EHOPD 0.50 wt %, 4 hr, Table 3A multi-purpose lens care formulation, 10% organic soil
# [37] = EHOPD 0.5 wt %, 4 hr, borate buffered saline, 10% organic soil
# [38] = EHOPD 0.5 wt %, 4 hr, phosphate buffered saline, 10% Organic Soil
# [39] = EHOPD 0.75 wt %, 1 hr, Table 3A multi-purpose lens care formulation, 10% organic soil
# [40] = EHOPD 0.75 wt %, 4 hr, Table 3A multi-purpose lens care formulation, 10% organic soil
# [41] = EHOPD 1.0 wt %, 1 hr, Table 3A multi-purpose lens care formulation, 10% organic soil
# [42] = EHOPD 1.0 wt %, 4 hr, Table 3A multi-purpose lens care formulation, 10% organic soil
smiles,measurement,setting,value
"CCCCC(CC)COCC(O)CO (centres unmarked) [EHOPD, 3-[(2-ethylhexyl)oxy]-1,2-propanediol]",log reduction P. aeruginosa,[1]; [5],1.4
same,log reduction P. aeruginosa,[1]; [6],1.5
same,log reduction P. aeruginosa,[1]; [7],1.4
same,log reduction P. aeruginosa,[1]; [8],1.5
same,log reduction P. aeruginosa,[1]; [9],1.5
same,log reduction P. aeruginosa,[1]; [10],1.5
same,log reduction P. aeruginosa,[1]; [11],1.5
same,log reduction P. aeruginosa,[1]; [12],1.5
same,log reduction P. aeruginosa,[1]; [13],1.5
same,log reduction P. aeruginosa,[1]; [14],1.5
same,log reduction P. aeruginosa,[1]; [15],1.5
same,log reduction P. aeruginosa,[1]; [16],1.5
same,log reduction P. aeruginosa,[1]; [17],1.9
same,log reduction P. aeruginosa,[1]; [18],2.6
same,log reduction P. aeruginosa,[1]; [19],1.5
same,log reduction P. aeruginosa,[1]; [20],1.9
same,log reduction P. aeruginosa,[1]; [21],>5.0
same,log reduction P. aeruginosa,[1]; [22],1.5
same,log reduction P. aeruginosa,[1]; [23],>5.4
same,log reduction P. aeruginosa,[1]; [24],>5.0
same,log reduction P. aeruginosa,[1]; [25],1.5
same,log reduction P. aeruginosa,[1]; [26],>5.4
same,log reduction P. aeruginosa,[1]; [27],>5.0
same,log reduction P. aeruginosa,[1]; [28],3.7
same,log reduction P. aeruginosa,[1]; [29],>5.4
same,log reduction P. aeruginosa,[1]; [30],>5.4
same,log reduction P. aeruginosa,[1]; [31],>5.4
same,log reduction P. aeruginosa,[1]; [32],>5.4
same,log reduction P. aeruginosa,[1]; [33],>5.4
same,log reduction P. aeruginosa,[1]; [34],>5.0
same,log reduction P. aeruginosa,[1]; [35],1.5
same,log reduction P. aeruginosa,[1]; [36],>5.4
same,log reduction P. aeruginosa,[1]; [37],>5.0
same,log reduction P. aeruginosa,[1]; [38],4.1
same,log reduction P. aeruginosa,[1]; [39],>5.4
same,log reduction P. aeruginosa,[1]; [40],>5.4
same,log reduction P. aeruginosa,[1]; [41],>5.4
same,log reduction P. aeruginosa,[1]; [42],>5.4
same,log reduction F. solani,[2]; [5],3.1
same,log reduction F. solani,[2]; [6],2.5
same,log reduction F. solani,[2]; [7],5.0
same,log reduction F. solani,[2]; [8],5.0
same,log reduction F. solani,[2]; [9],1.3
same,log reduction F. solani,[2]; [10],2.3
same,log reduction F. solani,[2]; [11],2.1
same,log reduction F. solani,[2]; [12],2.3
same,log reduction F. solani,[2]; [13],1.9
same,log reduction F. solani,[2]; [14],1.8
same,log reduction F. solani,[2]; [15],1.9
same,log reduction F. solani,[2]; [16],2.9
same,log reduction F. solani,[2]; [17],0.3
same,log reduction F. solani,[2]; [18],2.4
same,log reduction F. solani,[2]; [19],3.6
same,log reduction F. solani,[2]; [20],0.5
same,log reduction F. solani,[2]; [21],>5.8
same,log reduction F. solani,[2]; [22],>5.8
same,log reduction F. solani,[2]; [23],0.3
same,log reduction F. solani,[2]; [24],>5.8
same,log reduction F. solani,[2]; [25],>5.8
same,log reduction F. solani,[2]; [26],0.5
same,log reduction F. solani,[2]; [27],>5.8
same,log reduction F. solani,[2]; [28],>5.8
same,log reduction F. solani,[2]; [29],0.5
same,log reduction F. solani,[2]; [30],>4.7
same,log reduction F. solani,[2]; [31],0.8
same,log reduction F. solani,[2]; [32],>4.7
same,log reduction F. solani,[2]; [33],>4.7
same,log reduction F. solani,[2]; [34],>5.8
same,log reduction F. solani,[2]; [35],>5.8
same,log reduction F. solani,[2]; [36],>4.7
same,log reduction F. solani,[2]; [37],>5.8
same,log reduction F. solani,[2]; [38],>5.8
same,log reduction F. solani,[2]; [39],>4.7
same,log reduction F. solani,[2]; [40],>4.7
same,log reduction F. solani,[2]; [41],>4.7
same,log reduction F. solani,[2]; [42],>4.7
same,log reduction C. albicans,[3]; [5],2.1
same,log reduction C. albicans,[3]; [6],>5.0
same,log reduction C. albicans,[3]; [7],2.8
same,log reduction C. albicans,[3]; [8],>5.0
same,log reduction C. albicans,[3]; [9],2.3
same,log reduction C. albicans,[3]; [10],2.3
same,log reduction C. albicans,[3]; [11],2.3
same,log reduction C. albicans,[3]; [12],2.3
same,log reduction C. albicans,[3]; [13],2.3
same,log reduction C. albicans,[3]; [14],2.3
same,log reduction C. albicans,[3]; [15],2.3
same,log reduction C. albicans,[3]; [16],2.3
same,log reduction C. albicans,[3]; [17],2.0
same,log reduction C. albicans,[3]; [18],2.3
same,log reduction C. albicans,[3]; [19],2.3
same,log reduction C. albicans,[3]; [20],2.0
same,log reduction C. albicans,[3]; [21],2.3
same,log reduction C. albicans,[3]; [22],2.3
same,log reduction C. albicans,[3]; [23],2.0
same,log reduction C. albicans,[3]; [24],5.4
same,log reduction C. albicans,[3]; [25],3.8
same,log reduction C. albicans,[3]; [26],2.0
same,log reduction C. albicans,[3]; [27],>5.7
same,log reduction C. albicans,[3]; [28],>5.7
same,log reduction C. albicans,[3]; [29],2.0
same,log reduction C. albicans,[3]; [30],2.0
same,log reduction C. albicans,[3]; [31],2.0
same,log reduction C. albicans,[3]; [32],2.0
same,log reduction C. albicans,[3]; [33],2.0
same,log reduction C. albicans,[3]; [34],5.1
same,log reduction C. albicans,[3]; [35],3.8
same,log reduction C. albicans,[3]; [36],3.1
same,log reduction C. albicans,[3]; [37],>5.7
same,log reduction C. albicans,[3]; [38],>5.7
same,log reduction C. albicans,[3]; [39],4.2
same,log reduction C. albicans,[3]; [40],>5.5
same,log reduction C. albicans,[3]; [41],>5.5
same,log reduction C. albicans,[3]; [42],>5.5
same,log reduction S. aureus,[4]; [5],1.2
same,log reduction S. aureus,[4]; [6],1.2
same,log reduction S. aureus,[4]; [7],1.2
same,log reduction S. aureus,[4]; [8],1.3
same,log reduction S. aureus,[4]; [9],1.4
same,log reduction S. aureus,[4]; [10],1.4
same,log reduction S. aureus,[4]; [11],1.4
same,log reduction S. aureus,[4]; [12],1.4
same,log reduction S. aureus,[4]; [13],1.4
same,log reduction S. aureus,[4]; [14],1.4
same,log reduction S. aureus,[4]; [15],1.4
same,log reduction S. aureus,[4]; [16],1.4
same,log reduction S. aureus,[4]; [17],1.4
same,log reduction S. aureus,[4]; [18],1.4
same,log reduction S. aureus,[4]; [19],1.4
same,log reduction S. aureus,[4]; [20],1.4
same,log reduction S. aureus,[4]; [21],1.4
same,log reduction S. aureus,[4]; [22],1.4
same,log reduction S. aureus,[4]; [23],1.4
same,log reduction S. aureus,[4]; [24],1.7
same,log reduction S. aureus,[4]; [25],1.4
same,log reduction S. aureus,[4]; [26],1.4
same,log reduction S. aureus,[4]; [27],4.0
same,log reduction S. aureus,[4]; [28],3.0
same,log reduction S. aureus,[4]; [29],1.4
same,log reduction S. aureus,[4]; [30],1.4
same,log reduction S. aureus,[4]; [31],1.4
same,log reduction S. aureus,[4]; [32],1.4
same,log reduction S. aureus,[4]; [33],1.4
same,log reduction S. aureus,[4]; [34],1.8
same,log reduction S. aureus,[4]; [35],1.4
same,log reduction S. aureus,[4]; [36],1.8
same,log reduction S. aureus,[4]; [37],4.3
same,log reduction S. aureus,[4]; [38],3.1
same,log reduction S. aureus,[4]; [39],1.6
same,log reduction S. aureus,[4]; [40],3.1
same,log reduction S. aureus,[4]; [41],2.2
same,log reduction S. aureus,[4]; [42],3.7
